Patent US10570121B2, “Substituted dihydroisoquinolinone compounds” (priority 2014, dated 2020)
Like-named read-outs stand apart in the source and are kept apart here.

Assays:
WT EZH2 = WT EZH2 (Homo sapiens (Human), UniProt Q15910); experiment: WT EZH2 nucleosome assay (10X SAM, high SAM conditions); type: biochemical; conditions: 15 uM SAM, Ki app from competitive inhibition fit
Protocol: (§1) The genes for EZH2, EED, SUZ12, and RBBP4 proteins were cloned into pBacPAK9 vectors (Clontech). RBBP4 was FLAG tagged on the N-terminal end. The baculovirus expressions of these proteins were used to co-infect SF9 insect cells. Insect cell pellets were lysed in a buffer containing 25 mM Tris pH8.0, 300 mM NaCl, 0.5 mM TCEP, complete EDTA-free protease inhibitor (Roche), 0.1% NP-40. The supernatant from the lysate was incubated with FLAG® M2 antibody resin (Sigma). The resin was washed on the chromatography column and eluted with 0.2 mg/ml FLAG peptide. The elute was incubated with omnicleave nucleases (Epicentre Technologies) at 4° C. overnight, then concentrated and loaded onto a Superdex 200 (GE Healthcare) column. The Superdex 200 column was eluted with 25 mM Tris pH8.0, 150 mM NaCl, 0.5 mM TCEP. Fractions containing the PRC2 complex were pooled.
(§2) A. Compound preparation • 1.
(§3) B. Reagent preparation • 1. […] Dilute TCA to 20% in DI water
(§4) C. Enzyme reaction • 1. […] Some compounds were tested under high SAM conditions.
(§5) D. Data analysis • 1. IC50 values were determined by fitting the data to a 4-parameter IC50 equation using proprietary curve fitting software. • 2. For compounds tested under high SAM conditions, Ki^app values were obtained by fitting the dose response curve to a model for competitive inhibition using proprietary curve fitting software. Preparation of HeLa Oligonucleosomes: Reagents • Cell Pellet: 15 L HeLa S3 (Accelgen)+6 L HeLa S3 (in house) • Mnase (Worthington Biochemicals) Equipment • SW-28 Rotor • Dounce Homogenizer/B Pestle Buffers • Lysis: 20 mM Hepes pH 7.5, 0.25M Sucrose, 3 mM MgCl2, 0.5% Nonidet P-40, 0.5 mM TCEP, 1 Roche Protease Tablet • B: 20 mM Hepes pH7.5, 3 mM MgCl2, 0.5 mM EDTA, 0.5 mM TCEP, 1 Roche Protease Tablet • MSB: 20 mM Hepes pH7.5, 0.4 M NaCl, 1 mM EDTA, 5% v/v Glycerol, 0.5 mM TCEP, 0.2 mM PMSF • LSB: 20 mM Hepes pH7.5, 0.1M NaCl, 1 mM EDTA, 0.5 mM TCEP, 0.2 mM PMSF • NG: 20 mM Hepes pH7.5, 1 mM EDTA, 0.4 m NaCl, 0.2 mM PMSF, 0.5 mM TCEP • Storage: 20 mM Hepes pH7.5, 1 mM EDTA, 10% Glycerol, 0.2 mM PMSF, 0.5 mM TCEP Protocol

EZH2 Mutant Y641N = EZH2 Mutant Y641N (Homo sapiens (Human), UniProt Q15910, Y641N); experiment: EZH2 Mutant Y641N nucleosome assay; type: biochemical; conditions: PRC2 4-protein complex 6 nM, 1.5 μM SAM, HeLa oligonucleosomes
Sequence of EZH2 Mutant Y641N (Q15910 whole entry Y641N, looked up): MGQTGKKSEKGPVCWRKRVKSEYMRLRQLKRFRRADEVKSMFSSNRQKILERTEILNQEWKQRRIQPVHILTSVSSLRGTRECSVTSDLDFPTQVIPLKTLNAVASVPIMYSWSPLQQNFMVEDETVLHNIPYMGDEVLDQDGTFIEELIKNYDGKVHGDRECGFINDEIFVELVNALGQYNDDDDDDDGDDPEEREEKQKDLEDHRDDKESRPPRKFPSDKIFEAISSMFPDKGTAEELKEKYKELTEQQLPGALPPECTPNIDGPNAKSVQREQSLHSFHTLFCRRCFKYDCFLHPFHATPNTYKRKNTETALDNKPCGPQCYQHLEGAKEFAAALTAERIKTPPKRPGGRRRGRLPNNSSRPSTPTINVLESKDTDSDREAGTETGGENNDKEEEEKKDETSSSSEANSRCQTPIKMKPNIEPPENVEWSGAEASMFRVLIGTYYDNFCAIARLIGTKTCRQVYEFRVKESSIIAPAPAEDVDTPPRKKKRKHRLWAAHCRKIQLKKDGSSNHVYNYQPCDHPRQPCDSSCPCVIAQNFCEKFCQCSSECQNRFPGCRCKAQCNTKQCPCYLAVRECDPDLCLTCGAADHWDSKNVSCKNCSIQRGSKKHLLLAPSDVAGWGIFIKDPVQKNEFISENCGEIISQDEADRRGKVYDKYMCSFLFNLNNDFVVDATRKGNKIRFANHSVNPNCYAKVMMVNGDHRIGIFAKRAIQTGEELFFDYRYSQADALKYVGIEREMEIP
Sequence of EZH2 Mutant Y641N (O75530 whole entry partner, looked up): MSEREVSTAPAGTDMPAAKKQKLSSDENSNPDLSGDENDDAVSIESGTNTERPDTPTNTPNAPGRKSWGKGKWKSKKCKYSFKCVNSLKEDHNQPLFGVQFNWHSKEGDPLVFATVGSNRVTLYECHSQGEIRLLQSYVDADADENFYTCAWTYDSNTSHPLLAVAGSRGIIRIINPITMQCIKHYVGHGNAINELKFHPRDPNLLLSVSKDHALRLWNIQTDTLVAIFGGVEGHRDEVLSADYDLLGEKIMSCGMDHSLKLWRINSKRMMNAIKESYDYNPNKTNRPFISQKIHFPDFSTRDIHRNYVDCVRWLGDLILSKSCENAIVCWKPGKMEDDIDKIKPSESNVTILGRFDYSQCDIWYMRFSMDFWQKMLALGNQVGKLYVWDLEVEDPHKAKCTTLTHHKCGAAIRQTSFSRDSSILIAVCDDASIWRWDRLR
Sequence of EZH2 Mutant Y641N (Q15022 whole entry partner, looked up): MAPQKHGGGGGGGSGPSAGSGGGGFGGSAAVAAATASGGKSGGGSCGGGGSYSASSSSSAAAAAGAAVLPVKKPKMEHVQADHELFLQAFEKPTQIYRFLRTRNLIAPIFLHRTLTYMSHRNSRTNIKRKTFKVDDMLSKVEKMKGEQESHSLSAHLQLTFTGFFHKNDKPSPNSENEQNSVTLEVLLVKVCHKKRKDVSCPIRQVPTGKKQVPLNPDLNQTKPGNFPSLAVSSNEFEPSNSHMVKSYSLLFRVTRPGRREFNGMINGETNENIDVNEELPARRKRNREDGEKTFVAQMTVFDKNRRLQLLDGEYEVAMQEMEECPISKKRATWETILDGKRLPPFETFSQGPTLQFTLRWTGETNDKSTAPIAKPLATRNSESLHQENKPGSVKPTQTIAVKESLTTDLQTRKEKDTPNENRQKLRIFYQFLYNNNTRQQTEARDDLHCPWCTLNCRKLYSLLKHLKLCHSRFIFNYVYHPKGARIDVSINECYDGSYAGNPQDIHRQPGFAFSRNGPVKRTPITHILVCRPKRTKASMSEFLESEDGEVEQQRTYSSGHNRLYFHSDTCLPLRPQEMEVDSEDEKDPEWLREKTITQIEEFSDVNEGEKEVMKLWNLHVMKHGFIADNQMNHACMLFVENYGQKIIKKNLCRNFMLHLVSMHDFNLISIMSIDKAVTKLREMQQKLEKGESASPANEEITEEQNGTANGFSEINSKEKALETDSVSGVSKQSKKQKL
Sequence of EZH2 Mutant Y641N (Q09028 whole entry partner, looked up): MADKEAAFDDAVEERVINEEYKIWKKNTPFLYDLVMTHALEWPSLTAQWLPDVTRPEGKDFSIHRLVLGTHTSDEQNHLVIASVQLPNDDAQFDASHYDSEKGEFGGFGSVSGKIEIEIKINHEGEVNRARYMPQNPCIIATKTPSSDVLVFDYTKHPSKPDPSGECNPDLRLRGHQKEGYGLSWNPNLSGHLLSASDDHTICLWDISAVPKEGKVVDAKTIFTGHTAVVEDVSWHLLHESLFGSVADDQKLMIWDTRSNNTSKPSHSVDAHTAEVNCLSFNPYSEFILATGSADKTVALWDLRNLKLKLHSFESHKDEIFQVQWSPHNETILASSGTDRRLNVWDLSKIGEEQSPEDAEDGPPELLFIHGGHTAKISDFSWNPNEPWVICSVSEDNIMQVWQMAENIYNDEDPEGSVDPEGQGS
Protocol: as §1, §2, §3, §4, §5

[1] = read-out: WT EZH2 Nucleosome assay (10X SAM) Ki
[2] = read-out: EZH2 Mutant Y641N Nucleosome assay IC50
[3] = WT EZH2 Nucleosome assay (10X SAM) Ki (μM)
[4] = EZH2 Mutant Y641N Nucleosome assay IC50 (μM)

Sequence of WT EZH2 (Q15910 whole entry, looked up): as the sequence (Q15910 whole entry Y641N, looked up) above, with N641Y counted along it
Sequence of WT EZH2 (O75530 whole entry partner, looked up): as the sequence (O75530 whole entry partner, looked up) above
Sequence of WT EZH2 (Q15022 whole entry partner, looked up): as the sequence (Q15022 whole entry partner, looked up) above
Sequence of WT EZH2 (Q09028 whole entry partner, looked up): as the sequence (Q09028 whole entry partner, looked up) above

Row | Ki (WT EZH2; [1]) | IC50 (EZH2 Mutant Y641N; [2]) | Ki (WT EZH2; [3]) | IC50 (EZH2 Mutant Y641N; [4]) | SMILES
1 | 0.6 nM | 0.005 µM | – | – | Cc1cc(C)c(CN2CCc3c(Cl)cc(C(C)C4CN(C(=O)CO)C4)c(Cl)c3C2=O)c(=O)[nH]1 (single isomer, unassigned) [Example 184]
2 | 0.01 nM | 0.001 µM | – | – | COc1cc(C)[nH]c(=O)c1CN1CCc2c(C)cc(C(C)C3COC3)c(Cl)c2C1=O (single isomer, unassigned) [Example 198]
3 | 7 nM | 0.043 µM | – | – | Cc1cc(C)c(CN2CCc3ccc([C@@H](CO)[C@@H]4CCOC4)c(Cl)c3C2=O)c(=O)[nH]1 (racemic) [Example 64]
4 | 159 nM | 1.33 µM | – | – | Cc1cc(OC(F)F)c(CN2CCc3c(Cl)cc(C(CO)C4CCOC4)c(Cl)c3C2=O)c(=O)[nH]1 (single isomer, unassigned) [Example 93]
5 | – | – | 578 nM | 5.13 µM | CCOC(c1cc(Cl)c2c(c1Cl)C(=O)N(Cc1c(C)cc(C)[nH]c1=O)CC2)C1CS(=O)(=O)C1 (single isomer, unassigned) [Example 158]
6 | 1 nM | 0.012 µM | – | – | Cc1cc(OC(F)F)c(CN2CCc3c(Cl)cc(C(CO)C4CCOC4)c(Cl)c3C2=O)c(=O)[nH]1 (single isomer, unassigned) [Example 95]
7 | 5 nM | 0.035 µM | – | – | Cc1cc(C)c(CN2CCc3c(Cl)cc(C(F)C4CCN(C(=O)CO)CC4)c(Cl)c3C2=O)c(=O)[nH]1 (single isomer, unassigned; (-)) [Example 9, (−)-5,8-dichloro-2-[(4,6-dimethyl-2-oxo-1,2-dihydropyridin-3-yl)methyl]-7-{fluoro[1-(hydroxyacetyl)piperidin-4-yl]methyl}-3,4-dihydroisoquinolin-1(2H)-one]
8 | 184 nM | 1.17 µM | – | – | COC(c1cc(Cl)c2c(c1Cl)C(=O)N(Cc1c(C)cc(C)[nH]c1=O)CC2)C1CN(C(=O)CO)C1 (single isomer, unassigned) [Example 128]
9 | 31 nM | 0.18 µM | – | – | Cc1cc(C)c(CN2CCc3c(Cl)cc(C(CO)N4CCOCC4)c(Cl)c3C2=O)c(=O)[nH]1 (racemic) [Example 60]
10 | 41 nM | 0.128 µM | – | – | COC(c1cc(Cl)c2c(c1Cl)C(=O)N(Cc1c(C)cc(C)[nH]c1=O)CC2)C1CCN(C=O)CC1 (single isomer, unassigned) [Example 72]
11 | 52 nM | 0.32 µM | – | – | Cc1cc(C)c(CN2CCc3c(Cl)cc(C(CO)O[C@@H]4CCOC4)c(Cl)c3C2=O)c(=O)[nH]1 (single isomer, unassigned) [Example 103]
12 | 539 nM | 2.27 µM | – | – | COC(c1cc(Cl)c2c(c1Cl)C(=O)N(Cc1c(C)cc(C)[nH]c1=O)CC2)C1CCS(=O)(=O)C1 (single isomer, unassigned) [Example 149]
13 | 7 nM | 0.074 µM | – | – | Cc1cc(C)c(CN2CCc3c(Cl)cc(C(CO)N4CCOCC4)c(Cl)c3C2=O)c(=O)[nH]1 (single isomer, unassigned) [Example 68]
14 | 56 nM | 0.517 µM | – | – | Cc1cc(C)c(CN2CCc3c(Cl)cc(C(C)C4CN(C(=O)CO)C4)c(Cl)c3C2=O)c(=O)[nH]1 (single isomer, unassigned) [Example 183]
15 | – | – | 0.2 nM | 0.0022 µM | COc1cc(C)[nH]c(=O)c1CN1CCc2c(Cl)cc(C(OC)C3CCOC3)c(Cl)c2C1=O (single isomer, unassigned) [Example 127]
16 | 204 nM | 2.99 µM | – | – | Cc1cc(C)c(CN2CCc3ccc(C(CO)C4CCOC4)c(Cl)c3C2=O)c(=O)[nH]1 (single isomer, unassigned) [Example 96]
17 | 0.3 nM | 0.005 µM | – | – | COc1cc(C)[nH]c(=O)c1CN1CCc2c(C)cc(C(C)C3CN(S(C)(=O)=O)C3)c(Cl)c2C1=O (single isomer, unassigned) [Example 191]
18 | 0.1 nM | 0.003 µM | – | – | COC(c1cc(Cl)c2c(c1Cl)C(=O)N(Cc1c(C)cc(C)[nH]c1=O)CC2)C1CCS(=O)(=O)C1 (single isomer, unassigned) [Example 150]
19 | 328 nM | 2.63 µM | – | – | COC(c1cc(Cl)c2c(c1Cl)C(=O)N(Cc1c(C)cc(C)[nH]c1=O)CC2)C1CN(C(=O)[C@@H](C)O)C1 (single isomer, unassigned) [Example 171]
20 | 215 nM | 0.996 µM | – | – | COC(C(C)=O)c1cc(Cl)c2c(c1Cl)C(=O)N(Cc1c(C)cc(C)[nH]c1=O)CC2 (racemic) [Example 49]
21 | 0.2 nM | 0.005 µM | – | – | COc1cc(C)[nH]c(=O)c1CN1CCc2c(C)cc(C(OC)C3COC3)c(Cl)c2C1=O (single isomer, unassigned) [Example 144]
22 | – | – | 4 nM | 0.04 µM | CCC(OC)c1cc(Cl)c2c(c1Cl)C(=O)N(Cc1c(C)cc(C)[nH]c1=O)CC2 (single isomer, unassigned) [Example 16, 5,8-dichloro-2-[(4,6-dimethyl-2-oxo-1,2-dihydropyridin-3-yl)methyl]-7-(1-methoxypropyl)-3,4-dihydroisoquinolin-1(2H)-one]
23 | 417 nM | 4.31 µM | – | – | Cc1cc(C)c(CN2CCc3c(Cl)cc(C(CO)N4CCOCC4)c(Cl)c3C2=O)c(=O)[nH]1 (single isomer, unassigned) [Example 69]
24 | 16 nM | 0.152 µM | – | – | COC(c1cc(Cl)c2c(c1Cl)C(=O)N(Cc1c(C)cc(C)[nH]c1=O)CC2)C1CC[S+]([O-])CC1 (single isomer, unassigned) [Example 114]
25 | 70 nM | 0.272 µM | – | – | COc1cc(C)[nH]c(=O)c1CN1CCc2c(C)cc(C(OC)C3COC3)c(Cl)c2C1=O (single isomer, unassigned) [Example 145]
26 | 0.1 nM | 0.003 µM | – | – | COc1cc(C)[nH]c(=O)c1CN1CCc2c(Cl)cc(C(OC)C3CCN(C=O)CC3)c(Cl)c2C1=O (single isomer, unassigned) [Example 118]
27 | 0.2 nM | 0.003 µM | – | – | Cc1cc(C)c(CN2CCc3c(C)cc(C(C)C4COC4)c(Cl)c3C2=O)c(=O)[nH]1 (single isomer, unassigned) [Example 196]

Row | SMILES | Ki (WT EZH2; [1]) | IC50 (EZH2 Mutant Y641N; [2]) | Ki (WT EZH2; [3]) | IC50 (EZH2 Mutant Y641N; [4])
28 | CC(=O)N1CC(=C(C)c2cc(Cl)c3c(c2Cl)C(=O)N(Cc2c(C)cc(C)[nH]c2=O)CC3)C1 [Example 76] | 5 nM | 0.043 µM | – | –
29 | CC(=C1CN(S(C)(=O)=O)C1)c1cc(C)c2c(c1Cl)C(=O)N(Cc1c(C)cc(C)[nH]c1=O)CC2 [Example 77] | 22 nM | 0.132 µM | – | –
30 | Cc1cc(C)c(CN2CCc3c(Cl)cc(C(C)N4CCOCC4)c(Cl)c3C2=O)c(=O)[nH]1 (single isomer, unassigned; (+)) [Example 90, (+)-5,8-dichloro-2-[(4,6-dimethyl-2-oxo-1,2-dihydropyridin-3-yl)methyl]-7-[1-(morpholin-4-yl)ethyl]-3,4-dihydroisoquinolin-1(2H)-one] | 459 nM | 5.63 µM | – | –
31 | CC(=C1CN(C(=O)CO)C1)c1cc(Cl)c2c(c1Cl)C(=O)N(Cc1c(C)cc(C)[nH]c1=O)CC2 [Example 75, 5,8-dichloro-2-[(4,6-dimethyl-2-oxo-1,2-dihydropyridin-3-yl)methyl]-7-{1-[1-(hydroxyacetyl)azetidin-3-ylidene]ethyl}-3,4-dihydroisoquinolin-1(2H)-one] | 2 nM | 0.02 µM | – | –
32 | Cc1cc(C)c(CN2CCc3c(Cl)cc(C(CO)N4CC[C@H](F)C4)c(Cl)c3C2=O)c(=O)[nH]1 (single isomer, unassigned) [Example 63] | 528 nM | 4.1 µM | – | –
33 | COC(c1cc(Cl)c2c(c1Cl)C(=O)N(Cc1c(C)cc(C)[nH]c1=O)CC2)C1CCN(C(=O)CO)C1 (centres unmarked) [Example 113] | 0.8 nM | 0.005 µM | – | –
34 | COc1cc(C)[nH]c(=O)c1CN1CCc2c(C)cc([C@@H](OC)[C@H]3CCOC3)c(Cl)c2C1=O [Example 86, 8-chloro-2-[(4-methoxy-6-methyl-2-oxo-1,2-dihydropyridin-3-yl)methyl]-7-{(S)-methoxy[(3S)-tetrahydrofuran-3-yl]methyl}-5-methyl-3,4-dihydroisoquinolin-1(2H)-one] | 61 nM | 0.637 µM | – | –
